These molecules were tested on Hyp1-NLuc Plasmodium falciparum-infected erythrocytes (new permeability pathway, NPP) (assay: microbe, parasite or virus in culture). Details: Erythrocyte, 0.33 h, read-out: Mean RLU at 28 min (As % of DMSO control).

| Structure (SMILES) | activity at 2 µM |
| --- | --- |
| Cc1c(C)n(Cc2ccc(F)cc2)c2ccc(C(=O)NCc3ccco3)cc12 [MMV008149] | 102% |
| CCC(C)NCC(O)(c1ccc(Cl)cc1)c1ccc(Cl)cc1 (stereo not shown) [MMV665928] | 106% |
| OC1=C2C(=Nc3ccccc3SC2c2ccc(Br)cc2)c2ccccc21 (stereo not shown) [MMV007127] | 108% |
| O=C(Nc1ccsc1C(=O)NC1CCCCC1)c1ccc(F)cc1 [MMV665939] | 104% |
| COc1ccc(C2Sc3ccccc3N=C3C2=C(O)c2ccccc23)cc1 (stereo not shown) [MMV000563] | 101% |
| COc1ccc(-c2nc(NC(=O)CS(=O)(=O)c3ccc(F)cc3)sc2C)cc1 [MMV665915] | 101% |
| COc1ccc(C2C(C(=O)Nc3cccc(OC)c3)c3ccccc3C(=O)N2C2CCCCC2)cc1 (stereo not shown) [MMV008455] | 107% |
| CN(C)CCCNCc1ccc(-c2ccc(F)c(Cl)c2)o1 [MMV020505] | 105% |
| CCOc1ccc2nc(C)cc(Nc3ccc(Br)cc3)c2c1 [MMV006522] | 102% |
| Cc1ccc(-c2cc(C(=O)Nc3ccc(S(=O)(=O)N4CCCCC4)cc3)[nH]n2)c(O)c1 [MMV665906] | 100% |
| CCCCC(O)(c1ccc(Cl)cc1)C(CN1CCOCC1)c1ccc(Cl)cc1 (stereo not shown) [MMV000619] | 108% |
| COc1ccccc1N1C(=N)SC(=Cc2ccc(OCc3ccccc3F)cc2)C1=O [MMV007199] | 86.7% |
| O=C(Nc1ccc(-c2nc3ccccc3[nH]2)cc1)c1ccc(Cl)c(Cl)c1 [MMV665840] | 109% |
| CC(C)=CCN1CCC(C(=O)Nc2ccc(-c3nc4ccccc4[nH]3)cc2)CC1 [MMV665946] | 106% |
| Cc1[nH]c(-c2ccc(F)cc2)cc1C(=O)NC1CCN(Cc2ccccc2)CC1 [MMV019738] | 109% |
| COc1ccc(OC)c(C2C3=C(CC(C)(C)CC3=O)N(c3ccc(Cl)c(Cl)c3)C3=C2C(=O)CC(C)(C)C3)c1 [MMV007208] | 102% |
| Cc1ccc(-c2cc3c(nn2)-c2ccccc2C3=O)cc1 [MMV666021] | 104% |
| COc1cc(OC)c(N(C)C(=O)c2cc3c(s2)-c2ccccc2S(=O)(=O)C3)cc1Cl [MMV006427] | 105% |

| Structure (SMILES) | activity at 2 µM |
| --- | --- |
| O=C(NC1CCN(Cc2ccccc2)CC1)c1cc(-c2ccncc2)nc2ccc(Cl)cc12 [MMV020275] | 115% |
| O=c1nc(C=Cc2ccc(Br)cc2)oc2ccccc12 [MMV666599] | 102% |
| Cc1nc2ccccc2c(O)c1CC=C(Cl)Cl [MMV665994] | 96.6% |
| CC(C)(C)CC(C)(C)NCC(O)COc1ccc(Cl)cc1Cl (stereo not shown) [MMV396794] | 111% |
| COc1ccccc1CNC(=O)C1c2ccccc2C(=O)N(CC(C)C)C1c1cccs1 (stereo not shown) [MMV000648] | 108% |
| OC(CNC1CCCCC1)Cn1c2ccc(I)cc2c2cc(I)ccc21 (stereo not shown) [MMV665882] | 103% |
| O=C(NCCCN1CCC(N2CCCCC2)CC1)C1=Cc2cc(Br)ccc2OC1 [MMV019995] | 106% |
| Cc1ccc2cc3c(N)c4c(C)ccc(C)c4nc3nc2c1 [MMV666079] | 96% |
| CCCCc1ccc(NS(=O)(=O)c2cc3c4c(c2)CCN4C(=O)CC3)cc1 [MMV001255] | 100% |
| COc1ccc(C(=O)Nc2nonc2-c2ccc(OC)c(OC)c2)cc1Cl [MMV011567] | 103% |
| Cc1cc(=O)oc2c1ccc1oc(C(=O)c3ccccc3)c(C)c12 [MMV006753] | 103% |
| CCOC(=O)c1cnc2c(C)cc(C)cc2c1Nc1ccc(OC)c(OC)c1 [MMV008294] | 104% |
| CCCc1c(C)nc2ccccc2c1O [MMV666081] | 105% |
| Cc1cc(C)c2c(c1)OCN(Cc1ccccc1Cl)C2 [MMV006558] | 108% |
| CCOc1ccc(C2N(C)c3ccccc3N2C)cc1 [MMV075490] | 117% |
| COc1cc2c3cc1Oc1c(OC)c(OC)cc4c1C(Cc1ccc(O)c(c1)Oc1ccc(cc1)CC3N(C)CC2)N(C)CC4 (stereo not shown) [MMV007474] | 104% |
| COc1cc(-c2nc(-c3ccccc3)c(-c3ccccc3)[nH]2)cc(OC)c1O [MMV020750] | 102% |

These molecules were tested on Hyp1-NLuc Plasmodium falciparum-infected erythrocytes (new permeability pathway, NPP) (assay: microbe, parasite or virus in culture). Details: Erythrocyte, 0.33 h, read-out: % of control remaining.

| Structure (SMILES) | activity at 2 µM |
| --- | --- |
| Cc1c(C)n(Cc2ccc(F)cc2)c2ccc(C(=O)NCc3ccco3)cc12 [MMV008149] | 118% |
| CCC(C)NCC(O)(c1ccc(Cl)cc1)c1ccc(Cl)cc1 (stereo not shown) [MMV665928] | 121% |
| OC1=C2C(=Nc3ccccc3SC2c2ccc(Br)cc2)c2ccccc21 (stereo not shown) [MMV007127] | 114% |
| O=C(Nc1ccsc1C(=O)NC1CCCCC1)c1ccc(F)cc1 [MMV665939] | 115% |
| COc1ccc(C2Sc3ccccc3N=C3C2=C(O)c2ccccc23)cc1 (stereo not shown) [MMV000563] | 106% |
| COc1ccc(-c2nc(NC(=O)CS(=O)(=O)c3ccc(F)cc3)sc2C)cc1 [MMV665915] | 98.3% |
| COc1ccc(C2C(C(=O)Nc3cccc(OC)c3)c3ccccc3C(=O)N2C2CCCCC2)cc1 (stereo not shown) [MMV008455] | 115% |
| CN(C)CCCNCc1ccc(-c2ccc(F)c(Cl)c2)o1 [MMV020505] | 106% |
| CCOc1ccc2nc(C)cc(Nc3ccc(Br)cc3)c2c1 [MMV006522] | 104% |
| Cc1ccc(-c2cc(C(=O)Nc3ccc(S(=O)(=O)N4CCCCC4)cc3)[nH]n2)c(O)c1 [MMV665906] | 105% |
| CCCCC(O)(c1ccc(Cl)cc1)C(CN1CCOCC1)c1ccc(Cl)cc1 (stereo not shown) [MMV000619] | 114% |
| COc1ccccc1N1C(=N)SC(=Cc2ccc(OCc3ccccc3F)cc2)C1=O [MMV007199] | 62.6% |
| O=C(Nc1ccc(-c2nc3ccccc3[nH]2)cc1)c1ccc(Cl)c(Cl)c1 [MMV665840] | 107% |
| CC(C)=CCN1CCC(C(=O)Nc2ccc(-c3nc4ccccc4[nH]3)cc2)CC1 [MMV665946] | 121% |
| Cc1[nH]c(-c2ccc(F)cc2)cc1C(=O)NC1CCN(Cc2ccccc2)CC1 [MMV019738] | 95.2% |
| COc1ccc(OC)c(C2C3=C(CC(C)(C)CC3=O)N(c3ccc(Cl)c(Cl)c3)C3=C2C(=O)CC(C)(C)C3)c1 [MMV007208] | 104% |
| Cc1ccc(-c2cc3c(nn2)-c2ccccc2C3=O)cc1 [MMV666021] | 99.7% |
| COc1cc(OC)c(N(C)C(=O)c2cc3c(s2)-c2ccccc2S(=O)(=O)C3)cc1Cl [MMV006427] | 104% |

| Structure (SMILES) | activity at 2 µM |
| --- | --- |
| O=C(NC1CCN(Cc2ccccc2)CC1)c1cc(-c2ccncc2)nc2ccc(Cl)cc12 [MMV020275] | 115% |
| O=c1nc(C=Cc2ccc(Br)cc2)oc2ccccc12 [MMV666599] | 94.3% |
| Cc1nc2ccccc2c(O)c1CC=C(Cl)Cl [MMV665994] | 101% |
| CC(C)(C)CC(C)(C)NCC(O)COc1ccc(Cl)cc1Cl (stereo not shown) [MMV396794] | 109% |
| COc1ccccc1CNC(=O)C1c2ccccc2C(=O)N(CC(C)C)C1c1cccs1 (stereo not shown) [MMV000648] | 105% |
| OC(CNC1CCCCC1)Cn1c2ccc(I)cc2c2cc(I)ccc21 (stereo not shown) [MMV665882] | 93.7% |
| O=C(NCCCN1CCC(N2CCCCC2)CC1)C1=Cc2cc(Br)ccc2OC1 [MMV019995] | 106% |
| Cc1ccc2cc3c(N)c4c(C)ccc(C)c4nc3nc2c1 [MMV666079] | 104% |
| CCCCc1ccc(NS(=O)(=O)c2cc3c4c(c2)CCN4C(=O)CC3)cc1 [MMV001255] | 89.2% |
| COc1ccc(C(=O)Nc2nonc2-c2ccc(OC)c(OC)c2)cc1Cl [MMV011567] | 103% |
| Cc1cc(=O)oc2c1ccc1oc(C(=O)c3ccccc3)c(C)c12 [MMV006753] | 108% |
| CCOC(=O)c1cnc2c(C)cc(C)cc2c1Nc1ccc(OC)c(OC)c1 [MMV008294] | 97.1% |
| CCCc1c(C)nc2ccccc2c1O [MMV666081] | 115% |
| Cc1cc(C)c2c(c1)OCN(Cc1ccccc1Cl)C2 [MMV006558] | 108% |
| CCOc1ccc(C2N(C)c3ccccc3N2C)cc1 [MMV075490] | 116% |
| COc1cc2c3cc1Oc1c(OC)c(OC)cc4c1C(Cc1ccc(O)c(c1)Oc1ccc(cc1)CC3N(C)CC2)N(C)CC4 (stereo not shown) [MMV007474] | 103% |
| COc1cc(-c2nc(-c3ccccc3)c(-c3ccccc3)[nH]2)cc(OC)c1O [MMV020750] | 109% |

Source: paper PMC5118696, “Identification of inhibitors that dually target the new permeability pathway and dihydroorotate dehydrogenase in the blood stage of Plasmodium falciparum” (Scientific Reports, 2016)
